The source of these data is patent publication US20170252362A1, “METHODS & COMPOUNDS USEFUL IN HEMATOPOIETIC STEM CELL MEDICINE” (ECOLE POLYTECHNIQUE FEDERALE DE LAUSANNE (EPFL), priority 2014, published 2017).

Assay [1] concerns blood recovery and survival of transplanted mice. Description: Survival and blood recovery of lethally irradiated, transplanted mice treated with the agent. It counts as in vivo, mouse. The settings on record: for blood recovery of post-transplanted mice (platelets, granulocytes/neutrophils): Example 8, FIG. 9D, treated recipients versus control. On the procedure:
Given the dependency of differentiated hematopoietic cells to the progenitor compartments, the effect of a mitochondrial membrane potential reducing agent according to the invention, in particular NR, in improving blood recovery and survival of transplanted mice was assessed. Peripheral blood count started at day 13 after transplantation, and it was repeated every 3 or 4 days.
(§1) C57Bl/6J and C57Bl/6J Ly5.1 were purchased from Charles River Laboratories International and maintained in micro-isolator cages. Mice were provided continuously with sterile food, water and bedding. Nicotinamide riboside (NR) (custom synthesized as triflate salt by Novalix in Strasbourg) was supplied in the food at 0.4 g/Kg mouse and mice were treated for 1 and 4 weeks respectively.

Assay [2] has as its system HSC activity of donor bone marrow. Description: Transplantation of BM derived from agent-treated donor mice (engraftment, blood chimerism). It counts as in vivo, mouse. The following applies: for short-term HSC activity of transplanted BM from treated donors (blood chimerism): Example 8, FIG. 9C, compared to control group. From the text: Therefore, NR-treatment is not expected to exhaust the LT-HSC population, which is often the problem when increasing short-term HSCs and their progeny.

Assay [3] concerns HSC mitochondrial activity. Description: In vivo assay of HSC mitochondrial activity: TMRM flow cytometry of freshly isolated HSC from mice fed the compounds. Also on record: species or system mouse. From the text:
The effect of agents on HSC mitochondrial activity has been assessed by measuring mitochondrial activity in vivo: freshly isolated HSC from mice fed with the compounds were stained by TMRM and analyzed by flow cytometry.

In assay [4] the test system is hematopoietic progenitor compartments. Description: Colony-forming functional assay (CFUs, Methocult) on BM derived from agent-treated mice. It counts as in vivo, mouse.
Assay [5] relates to hematopoietic stem and progenitor pool sizes in the bone marrow. In words: Flow cytometry analysis of hematopoietic stem and progenitor pool sizes in bone marrow of mice fed the agent. It counts as in vivo, mouse. The following applies: for number of hematopoietic stem cells (ST-HSC / most primitive HSC) by flow cytometry: Example 8, one week treatment, FIG. 9A. The protocol: Bone marrow (BM) cells were isolated from C57Bl/6J and C57Bl/6J Ly5.1 from crushed femora and tibia. Flow cytometry analysis of hematopoietic stem and progenitor cells was performed on freshly isolated bone marrow (BM). Cell suspensions were filtered through a 70 μm cell strainer and erythroid cells were eliminated by incubation with red blood cells lysis buffer (eBioscences). Lineage-positive cells were removed with a magnetic lineage depletion kit (Miltenyi Biotech). Cell suspensions were stained with a panel of specific antibodies for stem and progenitor cells and analyzed or FACS-sorted respectively on a BD LSRII and BD FACS Aria II.
as §1

Another assay has as its system human hematopoiesis. Description: Human hematopoiesis in humanized NSG mice fed NR-supplemented diet. The settings on record: supplemented diet for one week. It counts as in vivo, human CD34+ cells in NSG mice. From the text: NOD scid gamma (NSG) mice which are a mouse strain NOD Cg-Prkdcscid Il2rgtm1Wjl/SzJ (005557) which correspond to a mutant mouse which combines the features of the NOD/ShiLtJ background (conferring a number of deficiencies in innate immunity), the severe combined immune deficiency mutation (SCID) and an IL2 receptor gamma chain deficiency which disables cytokine signaling, were purchased from The Jackson Laboratory and bred, treated, and maintained under pathogen-free conditions in-house. New-born NSG mice were irradiated with 1Gy and 6 hours later injected intra-hepatically (IH) with 10e6 human CD34 HSCs (purified CD34+ from mobilized blood, Cellsystems Biotechnologie GmbH, Troisdorf, DE). The level of human reconstitution (% of human CD45+ cells) was analyzed 12 weeks later by FACS staining of tail vein blood samples. […] From the following day one cohort was given low fat food supplemented with NR as compared to the group treated with NA or Acipimox (n=10-12 mice/group), as indicated above, and the other cohort was given control diet. After seven days, tail vein blood was collected in EDTA tubes and mice sacrificed. Bone marrow cells were collected as described for C57BL6 mice, and both blood and bone marrow cells stained and analyzed for a panel of human lineage specific antibodies as described. […]

Assay [6] has as its system HSCs. Description: Single cell proliferation kinetics and division synchrony by time-lapse microscopy. It counts as cell-based, mouse. The settings on record: single cell level. The protocol:
Furthermore, at single cell level the effect of NR on cell proliferation kinetics was determined as described previously ([…] et al., 2012, supra). […] To follow the behavior of HSCs at single cell level, cells were sorted directly into 96-well plates coated with microwell arrays. Microwells containing a single cell at the time of plating were tracked by time-lapse microscopy. Proliferation kinetics were assessed using a Zeiss Axio Observer microscope equipped with an incubator chamber, temperature and CO2 control. Images were automatically acquired every three hours over five days using the imaging analysis software of MetaMorph (Visitron, Germany). Hydrogel microwell arrays were directly casted within individual wells of a 96-well plate as described (Kobel et al., 2009, Langmuir, 25(15):8774-9; Lutolf et al., 2009, Integr Biol (Camb), 1(1):59-69). Briefly, stoichiometrically balanced aqueous solutions of multi-arm poly(ethylene glycol) (PEG), end-functionalized with thiol and vinylsulfone groups were mixed and molded against a PDMS microstamp. Upon completion of crosslinking, the stamp was removed and the hydrogel microwell array was hydrated overnight at 4° C. and then sterilized with ultraviolet light.

Assay [7] concerns HSC mitochondrial activity. In words: In vitro HSC mitochondrial activity with JC1 and TMRM dyes. It counts as cell-based, mouse. From the text: The effects of NR on HSC mitochondrial activity has been assessed by measuring mitochondrial activity using JC1 (Mantel et al., 2010, Cell Cycle, 9(10), 2008-17) and TMRM dyes (Vannini et al., 2015, in preparation; Nakada et al., 2010, Nature, 468, 653-658).
The effect of agents on HSC mitochondrial activity has been assessed by measuring mitochondrial activity as described in Example 7 above.

The subject of assay [8] is HSCs. Description: In vivo activation of HSC by IFN-α, cell cycle (Ki67) and ΔΨm analysis. Set-up: species or system mouse. The protocol: In order to verify this hypothesis, cell cycle phase analyses were performed using Ki67 and Hoechst staining as described below on freshly isolated HSCs that were separated into low and high ΔΨm. […] Under homeostatic conditions, quiescent state, corresponding to ca. 70% of cells, and cycling HSCs have indistinguishable ΔΨm profiles.
A similar analysis was performed on HSCs that were activated to exit dormancy directly in vivo using interferon-alpha (IFN-α) treatment of mice (Essers et al., 2009, Nature 458, 904-908) through subcutaneous injections of IFN-α carried out 48 and 24 hours prior to cell isolation.
HSC were activated to exit dormancy by interferon-alpha (IFN-α) treatment following published protocols (Essers et al., 2009, supra). Briefly, subcutaneous injections in C57B1/6J mice were carried out with 10,000 U of IFN-α (R&D systems) 48 and 24 hours prior to bone marrow extraction. Control mice were injected with an equivalent volume of the vehicle (PBS+0.1% BSA).

Take `Cc1cnc(C(=O)O)c[n+]1[O-]` [Acipimox, acipimox, reference compound]: the “blood recovery of post-transplanted mice (platelets, granulocytes/neutrophils)” value in assay [1] is “slower platelet and granulocyte recovery”. Besides, the “short-term HSC activity of transplanted BM from treated donors (blood chimerism)” value in assay [2] was “no significant difference”.

With `O=C(O)c1cccnc1` [NA, nicotinic acid, reference compound], the “ability to reduce mitochondrial membrane potential in HSCs” value in [3] (mice fed with the compounds) is on record as “not able to significantly reduce mitochondrial membrane potential in HSCs”. Moreover, in [4] (Example 8, FIG. 9B), the “Megakaryocytes (MkE) colonies” value is given as “reduction of Megakaryocytes (MkE) colonies”; the “progenitor population / total and myeloid colonies in CFUs from BM of treated mice” value is “do not show a significant difference in total and myeloid colonies”. The “number of hematopoietic stem cells (ST-HSC / most primitive HSC) by flow cytometry” value in assay [5] is on record as “do not show a significant difference”.

On to `NC(=O)c1ccc[n+]([C@@H]2O[C@H](CO)[C@@H](O)[C@H]2O)c1` [NR, nicotinamide riboside], for which, in the assay with human hematopoiesis, the human lymphocyte production entry is reported as “significant increase in lymphocyte production” and the human monocyte production result is “trend towards increased monocyte production”. In addition, the “number of short-term HSCs with low mitochondrial activity” value in assay [3] (freshly isolated HSC from fed mice, TMRM, FIG. 12) was “able to push the number of short-term HSCs with low mitochondrial activity very significantly”. Further, the “colonies in CFUs assay from BM of treated mice” value in [4] (1 and 4 weeks treatment, especially short-term treated mice) was “confirmed the expansion of hematopoietic progenitor compartments”. In assay [4] (CFUs from BM of treated mice), the “lineage of most striking colony increase” value is “most striking in the Mk lineage”. Also, in [4] (Example 8, FIG. 9B), the “progenitor population / total and myeloid colonies in CFUs from BM of treated mice” value was “expanded progenitor population”. The “blood recovery of post-transplanted mice (platelets, granulocytes/neutrophils)” value in assay [1] is “faster exit of neutropenia and thrombocytopenia”. For the same compound, the “survival of transplanted mice” value in assay [1] (limiting-dose transplanted mice, all untreated mice died within one month) was found to be 80%. Further, in assay [1] (transplanted mice, on average), the “exit of neutropenia (neutrophils >0.5 G/l) relative to controls” value is recorded as “one week before controls” and the “recovery from severe thrombocytopenia (platelet count >100 G/l) earlier relative to control mice” value amounted to 10 days. The “neutrophil and platelet recovery” value in assay [1] (transplanted mice, peripheral blood counts from day 13) is “faster neutrophil and platelet recovery”. Besides, the “engraftment of BM derived from treated mice” value in assay [2] (1-month treated donor mice, transplantation assay) is on record as “do not show engraftment advantage”. In addition, the “short-term HSC activity of transplanted BM from treated donors (blood chimerism)” value in assay [2] was “higher ST-HSC activity”. Besides, the “hematopoietic stem and progenitor compartments in BM” value in [5] (1 week treatment through the food, flow cytometry) is on record as “increased cellularity is observed in all hematopoietic progenitor compartments”. For the same compound, the “hematopoietic progenitor compartments in BM” value in [5] (4 weeks treatment through the food, flow cytometry) was “only the short-term compartment (ST-HSC) is expanded”. For the same compound, in [5], the “number of hematopoietic stem cells (ST-HSC / most primitive HSC) by flow cytometry” value is on record as “expanded ST-HSC compartment”. The HSC pool entry in assay [5] (short- and long-term treatment) was “not accompanied by a reduction of the HSC pool”. Also, in the assay on HSCs [6], the asynchronous division entry is on record as “significant increase in asynchronous division” and the proliferation kinetics entry is listed as “do not have a major change in their proliferation kinetics”. Besides, the “mitochondrial activity of HSCs” value in [7] (HSCs exposed in vitro, JC1 and TMRM) was “robust decrease in mitochondrial activity”. Further, in assay [7] (dividing HSCs in vitro), the “proportion of cells with low mitochondrial activity” value was “raised the proportion of cells with low mitochondrial activity”. Moreover, in assay [7] (in vitro, compared to control conditions), the “percentage of cells with high mitochondrial activity” value is given as “reduces the percentage of cells with high mitochondrial activity to half”. In assay [7] (in vitro, control about 5%), the “percentage of HSC daughters that maintain a low mitochondrial activity” value is given as “about 10%”.

As to IFN-α, in the assay on HSCs [8] (after IFN-α treatment, MitoTracker Deep Red), the “ΔΨm levels of quiescent versus cycling HSCs” value is on record as “not significantly different”. Further, the “number of cycling (Ki67+) HSCs” value in the assay with HSCs [8] (subcutaneous injections 48 and 24 hours prior to cell isolation, control ca. 30) is on record as around 50%.
